Assay results from ChEMBL document CHEMBL5357053, “Neopetrotaurines A-C, Isoquinoline Alkaloids with an Unprecedented Taurine Bridge from the Sponge Neopetrosia sp” (J Nat Prod, 2024).
The source made the active and inactive calls. The rule behind the calls is not given here.

Assays:
Assay type in all cases: functional, cell-based
Rh4 = test: Downregulation of FOXO1 target gene set in human Rh4 cells measured after 6 hrs by GSEA method; conditions: dose 1.9 µM
[1] = Antiproliferative activity against human SCMC cells assessed as inhibition of cell viability measured after 72 hrs by IncuCyte live-cell imaging assay
[2] = Antiproliferative activity against human Rh4 cells assessed as inhibition of cell viability measured after 72 hrs by IncuCyte live-cell imaging assay; conditions: Rh4, 72 h
SCMC = test: Downregulation of FOXO1 target gene set in human SCMC cells measured after 6 hrs by GSEA method

Structure (SMILES) | Activity (Rh4) | IC50 [1] | IC50 [2] | Activity (SCMC)
COC(=O)c1cc2c(OS(=O)(=O)CCNc3c4c(cn(C)c3=O)C(=O)C(OC)=C(C)C4=O)c(C)c(OC)c(O)c2c[n+]1C | Active | 11 µM | 3.3 µM | Active
COC1=C(C)C(=O)c2c(cn(C)c(=O)c2NCCS(=O)(=O)Oc2c(C)c(OC)c(O)c3c[n+](C)c(C(=O)O)cc23)C1=O | inactive | 7.4 µM | 2.3 µM | inactive
COC1=C(C)C(=O)c2c(cn(C)c(=O)c2NCCS(=O)(=O)Oc2c(C)c(OC)c(O)c3c[n+](C)ccc23)C1=O | inactive | 7.3 µM | 1.9 µM | inactive
